What was measured:
DMPK = target: T1, DMPK (Homo sapiens, UniProt Q09013); parameters: method as in earlier work; conditions: Table S1; cited from earlier work
T1 construct: purchased DiscoveRx KINOMEscan (Ambit Biosciences)
T1 sequence (Q09013 1-629): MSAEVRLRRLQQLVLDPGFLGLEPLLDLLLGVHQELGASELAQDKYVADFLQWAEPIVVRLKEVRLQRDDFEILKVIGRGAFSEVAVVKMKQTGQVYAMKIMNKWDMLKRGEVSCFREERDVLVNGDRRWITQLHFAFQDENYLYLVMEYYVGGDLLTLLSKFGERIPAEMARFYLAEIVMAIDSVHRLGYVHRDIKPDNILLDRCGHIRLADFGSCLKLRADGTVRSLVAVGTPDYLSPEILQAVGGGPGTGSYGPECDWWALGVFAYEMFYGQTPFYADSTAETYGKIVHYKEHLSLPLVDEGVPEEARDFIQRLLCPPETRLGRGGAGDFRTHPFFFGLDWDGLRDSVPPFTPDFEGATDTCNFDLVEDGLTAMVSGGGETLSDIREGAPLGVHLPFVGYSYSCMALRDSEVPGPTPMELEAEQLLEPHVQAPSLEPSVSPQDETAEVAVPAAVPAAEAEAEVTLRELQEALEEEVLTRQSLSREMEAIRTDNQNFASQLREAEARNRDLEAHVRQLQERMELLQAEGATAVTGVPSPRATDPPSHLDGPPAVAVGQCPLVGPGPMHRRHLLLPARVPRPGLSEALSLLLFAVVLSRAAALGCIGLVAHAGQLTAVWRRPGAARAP

CDK3 = target: T2, CDK3 (Homo sapiens, UniProt Q00526); test: KINOMEscan panel screen; assay type: binding; conditions: read-out: Percent Control(%)
T2 construct: purchased DiscoveRx KINOMEscan (Ambit Biosciences)

PRKCQ = target: T3, PRKCQ (Homo sapiens, UniProt Q04759); test: KINOMEscan panel screen; assay type: binding; conditions: read-out: Percent Control(%)
T3 construct: purchased DiscoveRx KINOMEscan (Ambit Biosciences)

CDK2 = CDK2 (Homo sapiens, UniProt P24941); test: KINOMEscan panel screen; assay type: binding; conditions: read-out: Percent Control(%)
LOK = LOK (Homo sapiens, UniProt O94804); test: KINOMEscan panel screen; assay type: binding; conditions: read-out: Percent Control(%)
PRKX = target: T4, PRKX (Homo sapiens, UniProt P51817); test: KINOMEscan panel screen; assay type: binding; conditions: read-out: Percent Control(%)
T4 construct: purchased DiscoveRx KINOMEscan (Ambit Biosciences)

[1] = target: T5, RSK4(Kin.Dom.2-C-terminal) (Homo sapiens, UniProt Q9UK32); test: KINOMEscan panel screen; assay type: binding; conditions: read-out: Percent Control(%)
T5 construct: RSK4(Kin.Dom.2-C-terminal); purchased DiscoveRx KINOMEscan (Ambit Biosciences)

KIT(D816V) = target: T6, KIT(D816V) (Homo sapiens, UniProt P10721, D816V); test: KINOMEscan panel screen; assay type: binding; conditions: read-out: Percent Control(%)
T6 construct: purchased DiscoveRx KINOMEscan (Ambit Biosciences)

GRK7 = target: T7, GRK7 (Homo sapiens, UniProt Q8WTQ7); test: KINOMEscan panel screen; assay type: binding; conditions: read-out: Percent Control(%)
T7 construct: purchased DiscoveRx KINOMEscan (Ambit Biosciences)

[2] = target: T8, RPS6KA4(Kin.Dom.1-N-terminal) (Homo sapiens, UniProt O75676); test: KINOMEscan panel screen; assay type: binding; conditions: read-out: Percent Control(%)
T8 construct: RPS6KA4(Kin.Dom.1-N-terminal); purchased DiscoveRx KINOMEscan (Ambit Biosciences)

CSNK1G3 = target: T9, CSNK1G3 (Homo sapiens, UniProt Q9Y6M4); test: KINOMEscan panel screen; assay type: binding; conditions: read-out: Percent Control(%)
T9 construct: purchased DiscoveRx KINOMEscan (Ambit Biosciences)

MYO3B = target: T10, MYO3B (Homo sapiens, UniProt Q8WXR4); test: KINOMEscan panel screen; assay type: binding; conditions: read-out: Percent Control(%)
T10 construct: purchased DiscoveRx KINOMEscan (Ambit Biosciences)

SGK = target: T11, SGK (Homo sapiens, UniProt O00141); test: KINOMEscan panel screen; assay type: binding; conditions: read-out: Percent Control(%)
T11 construct: purchased DiscoveRx KINOMEscan (Ambit Biosciences)

NDR1 = target: T12, NDR1 (Homo sapiens, UniProt Q15208); test: KINOMEscan panel screen; assay type: binding; conditions: read-out: Percent Control(%)
T12 construct: purchased DiscoveRx KINOMEscan (Ambit Biosciences)

SRMS = target: T13, SRMS (Homo sapiens, UniProt Q9H3Y6); test: KINOMEscan panel screen; assay type: binding; conditions: read-out: Percent Control(%)
T13 construct: purchased DiscoveRx KINOMEscan (Ambit Biosciences)

KIT = target: T14, KIT (Homo sapiens, UniProt P10721); test: KINOMEscan panel screen; assay type: binding; conditions: read-out: Percent Control(%)
T14 construct: DNA tag (qPCR read-out); purchased Ambit Biosciences (KINOMEscan service)

CDC2L5 = target: T15, CDC2L5 (Homo sapiens, UniProt Q14004); test: KINOMEscan panel screen; assay type: binding; conditions: read-out: Percent Control(%)
T15 construct: purchased DiscoveRx KINOMEscan (Ambit Biosciences)
Description: (§1) In vitro KINOMEscan kinase binding assays (Ambit Biosciences) were employed to determine the binding affinity (Kd) of compounds[41][42].
(§2) Supplementary Table S3. Matrix of compound screen for SKLB -677 obtained through service provided by DiscoveRX. The compound was screened at a concentration of 10μM. Results are given in %control.
(§3) KINOMEscan Gene Symbol Entrez Gene Percent Compound
(§4) Symbol Control(%) Concentration (μM) […]

PRP4 = target: T16, PRP4 (Homo sapiens, UniProt Q13523); test: KINOMEscan panel screen; assay type: binding; conditions: read-out: Percent Control(%)
T16 construct: purchased DiscoveRx KINOMEscan (Ambit Biosciences)
Description: as §1, §2, §3, §4

PIP5K1A = target: T17, PIP5K1A (Homo sapiens, UniProt Q99755); test: KINOMEscan panel screen; assay type: binding; conditions: read-out: Percent Control(%)
T17 construct: purchased DiscoveRx KINOMEscan (Ambit Biosciences)

PRKG2 = target: T18, PRKG2 (Homo sapiens, UniProt Q13237); test: KINOMEscan panel screen; assay type: binding; conditions: read-out: Percent Control(%)
T18 construct: purchased DiscoveRx KINOMEscan (Ambit Biosciences)

CDKL3 = target: T19, CDKL3 (Homo sapiens, UniProt Q8IVW4); test: KINOMEscan panel screen; assay type: binding; conditions: read-out: Percent Control(%)
T19 construct: purchased DiscoveRx KINOMEscan (Ambit Biosciences)

PAK4 = target: T20, PAK4 (Homo sapiens, UniProt O96013); test: KINOMEscan panel screen; assay type: binding; conditions: read-out: Percent Control(%)
T20 construct: DNA tag (qPCR read-out); purchased Ambit Biosciences (KINOMEscan service)

FLT3(R834Q) = target: T21, FLT3(R834Q) (Homo sapiens, UniProt P36888, R834Q); test: KINOMEscan panel screen; assay type: binding; conditions: read-out: Percent Control(%)
T21 construct: purchased DiscoveRx KINOMEscan (Ambit Biosciences)

PIK3CD = target: T22, PIK3CD (Homo sapiens, UniProt O00329); test: KINOMEscan panel screen; assay type: binding; conditions: read-out: Percent Control(%)
T22 construct: purchased DiscoveRx KINOMEscan (Ambit Biosciences)

DYRK1B = target: T23, DYRK1B (Homo sapiens, UniProt Q9Y463); test: KINOMEscan panel screen; assay type: binding; conditions: read-out: Percent Control(%)
T23 construct: purchased DiscoveRx KINOMEscan (Ambit Biosciences)

ERK8 = target: T24, ERK8 (Homo sapiens, UniProt Q8TD08); test: KINOMEscan panel screen; assay type: binding; conditions: read-out: Percent Control(%)
T24 construct: purchased DiscoveRx KINOMEscan (Ambit Biosciences)

EPHA2 = target: T25, EPHA2 (Homo sapiens, UniProt P29317); test: KINOMEscan panel screen; assay type: binding; conditions: read-out: Percent Control(%)
T25 construct: purchased DiscoveRx KINOMEscan (Ambit Biosciences)

PIP5K2C = target: T26, PIP5K2C (Homo sapiens, UniProt Q8TBX8); test: KINOMEscan panel screen; assay type: binding; conditions: read-out: Percent Control(%)
T26 construct: purchased DiscoveRx KINOMEscan (Ambit Biosciences)

H358 = test: MTT cell viability assay; conditions: Homo sapiens, NCI-H358, 72 h
GRK4 = target: T27, GRK4 (Homo sapiens, UniProt P32298); test: KINOMEscan panel screen; assay type: binding; conditions: read-out: Percent Control(%)
T27 construct: purchased DiscoveRx KINOMEscan (Ambit Biosciences)

SBK1 = target: T28, SBK1 (Homo sapiens, UniProt Q52WX2); test: KINOMEscan panel screen; assay type: binding; conditions: read-out: Percent Control(%)
T28 construct: purchased DiscoveRx KINOMEscan (Ambit Biosciences)
T28 sequence (Q52WX2 whole entry): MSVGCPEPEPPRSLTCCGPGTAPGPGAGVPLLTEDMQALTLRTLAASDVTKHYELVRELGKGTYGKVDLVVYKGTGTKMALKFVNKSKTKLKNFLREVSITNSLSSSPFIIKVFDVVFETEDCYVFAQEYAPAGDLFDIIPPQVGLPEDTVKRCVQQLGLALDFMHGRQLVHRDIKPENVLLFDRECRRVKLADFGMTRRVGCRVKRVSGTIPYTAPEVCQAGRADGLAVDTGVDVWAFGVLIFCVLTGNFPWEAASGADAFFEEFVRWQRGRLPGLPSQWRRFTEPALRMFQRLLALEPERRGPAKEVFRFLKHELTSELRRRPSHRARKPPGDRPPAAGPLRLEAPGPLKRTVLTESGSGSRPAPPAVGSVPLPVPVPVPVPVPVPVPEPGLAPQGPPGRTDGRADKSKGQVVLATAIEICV

T16 sequence (Q13523 whole entry): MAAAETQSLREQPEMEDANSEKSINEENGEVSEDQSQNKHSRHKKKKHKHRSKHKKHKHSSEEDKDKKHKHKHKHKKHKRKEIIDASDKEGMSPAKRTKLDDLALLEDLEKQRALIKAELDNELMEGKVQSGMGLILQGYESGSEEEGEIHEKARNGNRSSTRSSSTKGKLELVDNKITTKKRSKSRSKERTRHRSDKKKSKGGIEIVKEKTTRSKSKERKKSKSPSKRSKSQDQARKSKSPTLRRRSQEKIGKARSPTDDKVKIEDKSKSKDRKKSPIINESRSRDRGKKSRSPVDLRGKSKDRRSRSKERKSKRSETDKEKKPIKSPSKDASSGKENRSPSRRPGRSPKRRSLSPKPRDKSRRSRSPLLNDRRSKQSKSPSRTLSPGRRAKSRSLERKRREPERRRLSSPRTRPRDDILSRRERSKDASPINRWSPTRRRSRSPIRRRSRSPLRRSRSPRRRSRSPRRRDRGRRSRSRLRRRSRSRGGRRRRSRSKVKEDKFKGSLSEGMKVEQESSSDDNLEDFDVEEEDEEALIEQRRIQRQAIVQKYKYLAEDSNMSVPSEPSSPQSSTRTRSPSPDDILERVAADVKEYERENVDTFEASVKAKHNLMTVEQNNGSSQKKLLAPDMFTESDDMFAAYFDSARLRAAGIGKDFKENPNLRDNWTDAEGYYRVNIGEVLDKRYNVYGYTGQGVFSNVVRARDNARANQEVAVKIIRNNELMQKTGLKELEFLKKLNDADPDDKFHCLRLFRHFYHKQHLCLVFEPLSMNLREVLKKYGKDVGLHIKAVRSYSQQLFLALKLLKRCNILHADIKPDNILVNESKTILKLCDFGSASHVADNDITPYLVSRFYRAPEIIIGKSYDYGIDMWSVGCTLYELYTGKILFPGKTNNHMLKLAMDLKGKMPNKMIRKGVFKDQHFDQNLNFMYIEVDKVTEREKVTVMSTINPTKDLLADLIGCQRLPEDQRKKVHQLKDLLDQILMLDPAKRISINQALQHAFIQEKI
T9 sequence (Q9Y6M4 whole entry): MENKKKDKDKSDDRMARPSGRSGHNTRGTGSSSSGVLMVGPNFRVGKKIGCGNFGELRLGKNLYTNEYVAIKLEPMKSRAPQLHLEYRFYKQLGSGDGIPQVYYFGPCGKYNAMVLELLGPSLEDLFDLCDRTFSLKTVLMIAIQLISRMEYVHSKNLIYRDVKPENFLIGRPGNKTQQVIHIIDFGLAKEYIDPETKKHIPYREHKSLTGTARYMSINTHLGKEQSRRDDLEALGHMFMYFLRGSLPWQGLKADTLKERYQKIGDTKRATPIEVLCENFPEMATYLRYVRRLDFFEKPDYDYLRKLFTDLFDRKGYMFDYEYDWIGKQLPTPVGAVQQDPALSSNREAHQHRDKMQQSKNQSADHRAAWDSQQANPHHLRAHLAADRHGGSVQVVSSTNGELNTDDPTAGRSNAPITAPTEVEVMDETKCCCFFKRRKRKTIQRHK
T4 sequence (P51817 whole entry): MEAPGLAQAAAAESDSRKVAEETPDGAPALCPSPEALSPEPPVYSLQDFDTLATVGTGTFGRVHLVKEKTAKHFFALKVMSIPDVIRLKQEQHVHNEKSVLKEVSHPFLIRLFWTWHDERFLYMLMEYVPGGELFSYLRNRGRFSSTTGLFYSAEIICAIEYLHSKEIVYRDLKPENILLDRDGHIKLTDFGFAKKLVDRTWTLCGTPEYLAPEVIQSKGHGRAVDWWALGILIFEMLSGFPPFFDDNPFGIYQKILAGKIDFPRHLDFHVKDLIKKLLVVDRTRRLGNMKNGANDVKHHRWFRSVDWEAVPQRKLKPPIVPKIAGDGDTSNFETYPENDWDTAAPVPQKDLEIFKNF
T25 sequence (P29317 24-976): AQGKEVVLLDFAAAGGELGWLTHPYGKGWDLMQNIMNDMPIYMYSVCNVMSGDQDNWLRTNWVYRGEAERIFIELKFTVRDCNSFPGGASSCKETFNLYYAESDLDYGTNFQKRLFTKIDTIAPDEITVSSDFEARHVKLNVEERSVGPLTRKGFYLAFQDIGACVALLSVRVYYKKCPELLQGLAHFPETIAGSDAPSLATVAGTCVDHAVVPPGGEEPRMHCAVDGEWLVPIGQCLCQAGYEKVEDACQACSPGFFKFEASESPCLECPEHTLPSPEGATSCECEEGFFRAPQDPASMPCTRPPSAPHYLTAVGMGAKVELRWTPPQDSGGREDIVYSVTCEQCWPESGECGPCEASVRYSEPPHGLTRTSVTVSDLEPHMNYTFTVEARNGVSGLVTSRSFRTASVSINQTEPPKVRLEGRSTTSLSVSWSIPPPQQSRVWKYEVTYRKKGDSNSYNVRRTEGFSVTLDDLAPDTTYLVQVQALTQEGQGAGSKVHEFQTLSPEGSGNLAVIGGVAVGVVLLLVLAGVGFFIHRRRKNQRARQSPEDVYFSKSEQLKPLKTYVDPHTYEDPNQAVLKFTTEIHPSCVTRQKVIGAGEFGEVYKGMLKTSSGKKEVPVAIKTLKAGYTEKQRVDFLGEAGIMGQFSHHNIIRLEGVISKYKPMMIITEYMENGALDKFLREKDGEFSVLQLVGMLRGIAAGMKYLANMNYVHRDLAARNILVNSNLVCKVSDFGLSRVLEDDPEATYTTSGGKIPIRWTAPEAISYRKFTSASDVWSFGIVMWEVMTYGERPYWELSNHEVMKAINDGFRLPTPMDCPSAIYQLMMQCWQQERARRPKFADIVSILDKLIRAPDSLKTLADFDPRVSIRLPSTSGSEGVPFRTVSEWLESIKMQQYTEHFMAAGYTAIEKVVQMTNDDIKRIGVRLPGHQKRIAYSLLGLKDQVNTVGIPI
T7 sequence (Q8WTQ7 whole entry): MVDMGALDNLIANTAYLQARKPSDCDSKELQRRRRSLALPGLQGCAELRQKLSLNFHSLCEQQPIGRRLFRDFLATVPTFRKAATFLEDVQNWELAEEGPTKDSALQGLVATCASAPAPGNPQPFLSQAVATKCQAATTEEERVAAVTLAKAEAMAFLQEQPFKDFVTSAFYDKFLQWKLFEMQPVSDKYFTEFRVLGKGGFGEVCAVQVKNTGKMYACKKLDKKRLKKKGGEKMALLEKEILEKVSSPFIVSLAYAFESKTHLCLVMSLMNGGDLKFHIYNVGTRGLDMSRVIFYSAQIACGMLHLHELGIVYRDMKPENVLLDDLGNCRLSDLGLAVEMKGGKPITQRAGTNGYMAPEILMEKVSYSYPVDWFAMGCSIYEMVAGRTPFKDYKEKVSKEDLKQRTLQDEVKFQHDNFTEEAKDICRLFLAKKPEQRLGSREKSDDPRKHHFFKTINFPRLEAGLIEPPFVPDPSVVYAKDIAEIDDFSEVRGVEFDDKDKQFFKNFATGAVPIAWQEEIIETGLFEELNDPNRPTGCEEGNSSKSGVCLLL
T27 sequence (P32298 whole entry): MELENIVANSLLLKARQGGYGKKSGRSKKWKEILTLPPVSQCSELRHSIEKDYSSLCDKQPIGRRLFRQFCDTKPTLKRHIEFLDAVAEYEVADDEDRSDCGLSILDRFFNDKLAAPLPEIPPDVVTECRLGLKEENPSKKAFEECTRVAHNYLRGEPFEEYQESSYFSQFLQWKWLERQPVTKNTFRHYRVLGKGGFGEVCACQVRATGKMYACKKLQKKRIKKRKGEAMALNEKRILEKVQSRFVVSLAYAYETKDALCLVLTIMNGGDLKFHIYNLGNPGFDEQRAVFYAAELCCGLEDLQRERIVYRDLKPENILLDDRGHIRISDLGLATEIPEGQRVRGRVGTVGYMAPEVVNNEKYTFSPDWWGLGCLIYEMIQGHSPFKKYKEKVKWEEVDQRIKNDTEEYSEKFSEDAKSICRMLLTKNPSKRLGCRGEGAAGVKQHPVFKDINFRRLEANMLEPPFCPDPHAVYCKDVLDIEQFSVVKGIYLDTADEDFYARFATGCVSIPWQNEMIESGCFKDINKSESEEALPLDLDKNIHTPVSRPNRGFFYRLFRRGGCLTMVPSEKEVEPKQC
T13 sequence (Q9H3Y6 whole entry): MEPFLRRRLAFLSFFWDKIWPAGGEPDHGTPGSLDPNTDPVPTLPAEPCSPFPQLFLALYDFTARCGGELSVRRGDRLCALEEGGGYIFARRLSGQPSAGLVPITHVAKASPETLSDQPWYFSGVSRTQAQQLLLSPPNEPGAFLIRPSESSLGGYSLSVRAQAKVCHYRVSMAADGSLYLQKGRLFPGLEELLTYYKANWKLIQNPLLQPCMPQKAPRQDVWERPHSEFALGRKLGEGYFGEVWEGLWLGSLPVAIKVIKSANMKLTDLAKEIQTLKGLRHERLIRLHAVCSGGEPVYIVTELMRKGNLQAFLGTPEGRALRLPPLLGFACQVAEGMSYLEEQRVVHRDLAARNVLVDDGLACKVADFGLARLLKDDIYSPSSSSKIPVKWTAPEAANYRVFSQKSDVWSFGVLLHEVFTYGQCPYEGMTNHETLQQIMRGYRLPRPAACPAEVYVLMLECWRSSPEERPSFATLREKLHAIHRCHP

In the case of `O=C(Nc1ccc(Oc2ncnc3[nH]ncc23)cc1)Nc1ccc(Cl)c(C(F)(F)F)c1` [Compound 1, 1-(4-(1H-pyrazolo[3,4-d]pyrimidin-4-yloxy)phenyl)-3-(4-chloro-3-(trifluoromethyl)phenyl)urea], the IC50 (DMPK) is listed as > 10 µM.

`CC(C)(C)c1cc(NC(=O)Nc2ccc(Oc3ncnc4[nH]ncc34)c(F)c2)no1` [SKLB-677, 1-(4-(1H-pyrazolo[3,4-d]pyrimidin-4-yloxy)-3-fluorophenyl)-3-(5-tert-butylisoxazol-3-yl)urea] showed a remaining binding at 10 µM (CDK3) of 0.2%, a remaining binding at 10 µM (PRKCQ) of 50% and a remaining binding at 10 µM (CDK2) of 1.6%. For the same molecule, the remaining binding at 10 µM (LOK) was 0%, the remaining binding at 10 µM (PRKX) was 44% and the remaining binding at 10 µM [1] was 72%. It also gave a remaining binding at 10 µM (KIT(D816V)) of 0.2%, a remaining binding at 10 µM (GRK7) of 87% and a remaining binding at 10 µM [2] of 29%. The remaining binding at 10 µM (CSNK1G3) was 70%, the remaining binding at 10 µM (MYO3B) was 17% and the remaining binding at 10 µM (SGK) was 29%. For the same molecule, the remaining binding at 10 µM (NDR1) was 58%, the remaining binding at 10 µM (SRMS) was 57% and the remaining binding at 10 µM (KIT) was 0%. The remaining binding at 10 µM (CDC2L5) was 0.6%, the remaining binding at 10 µM (PRP4) was 73% and the remaining binding at 10 µM (PIP5K1A) was 22%. For the same molecule, the remaining binding at 10 µM (PRKG2) was 100%, the remaining binding at 10 µM (CDKL3) was 0.75% and the remaining binding at 10 µM (PAK4) was 100%. The remaining binding at 10 µM (FLT3(R834Q)) was 2.8%, the remaining binding at 10 µM (PIK3CD) was 98% and the remaining binding at 10 µM (DYRK1B) was 41%. For the same molecule, the remaining binding at 10 µM (ERK8) was 0.8%, the remaining binding at 10 µM (EPHA2) was 1.2% and the remaining binding at 10 µM (PIP5K2C) was 100%. For the same molecule, the IC50 (H358) was 8 µM, the remaining binding at 10 µM (GRK4) was 45% and the remaining binding at 10 µM (SBK1) was 80%.

Source: publication PMC4620497 (Scientific Reports, 2015)
